Data reported in patent publication US9637520B2, “Template-fixed peptidomimetics with CXCR7 modulating activity” (POLYPHOR AG, priority 2010, dated 2017).
Starred links: 1 amine or outer side, 2 acyl side, 3 side chain; linkers in the order of their positions; H or OH if unused. Non-standard residues stand in square brackets, D forms with d. Residues, ends and D or L forms follow the SMILES beside them. Arg(Nω,Nω'-propylene) = N[C@@H](CCCNC1=NCCCN1)C(=O)O; Phe(4-CF3) = N[C@@H](Cc1ccc(C(F)(F)F)cc1)C(=O)O; dPro(cis-4-NH2) = N[C@H]1CN[C@@H](C(=O)O)C1; X4 = Cn1ccnc1CNCCC[C@H](N[*:1])C(=O)[*:2]; dPro(4S-NH2) = N[C@@H]1CN[C@@H](C(=O)O)C1; Pro(cis-4-F) = O=C(O)[C@@H]1C[C@H](F)CN1; Morpholine(3S-CO) = O=C(O)[C@@H]1COCCN1; Pro(3S-OH) = O=C(O)[C@H]1NCC[C@@H]1O; Tic = O=C(O)[C@@H]1Cc2ccccc2CN1; Agb = N=C(N)NCC[C@H](N)C(=O)O; Agp = N=C(N)NC[C@H](N)C(=O)O; dOrn = NCCC[C@@H](N)C(=O)O; dPip = O=C(O)[C@H]1CCCCN1; Nle = CCCC[C@H](N)C(=O)O; Orn = NCCC[C@H](N)C(=O)O; Abu = CC[C@H](N)C(=O)O

Each molecule was assayed against T1, CXCR7 (Homo sapiens, UniProt P25106) (assay: CXCR7 β-arrestin recruitment assay (PathHunter CHO-CXCR7, DiscoverX), agonistic assay). Settings: agonistic assay; CHO CXCR7 β-arrestin cells; 90 min at 37° C.; chemiluminescence; read-out: β-Arrestin EC50.
T1 construct: host or cells: CHO (PathHunter CHO-CXCR7 β-arrestin cells)
T1 sequence (P25106 whole entry): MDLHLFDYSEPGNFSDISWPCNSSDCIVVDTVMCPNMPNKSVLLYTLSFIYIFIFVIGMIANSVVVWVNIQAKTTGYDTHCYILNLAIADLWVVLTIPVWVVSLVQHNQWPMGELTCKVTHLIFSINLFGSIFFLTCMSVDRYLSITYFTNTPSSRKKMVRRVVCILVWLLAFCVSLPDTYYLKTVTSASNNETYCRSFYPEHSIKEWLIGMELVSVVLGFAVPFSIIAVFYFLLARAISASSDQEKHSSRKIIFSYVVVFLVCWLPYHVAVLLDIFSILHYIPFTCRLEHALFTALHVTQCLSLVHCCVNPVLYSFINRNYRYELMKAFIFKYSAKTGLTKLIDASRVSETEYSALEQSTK
Format: cell-based
In short: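 CHO cells co-expressing CXCR7 and β-arrestin (PathHunter), seeded overnight, then exposed to serially diluted compounds at 1% DMSO for 90 min at 37 °C; SDF-1 served as positive agonist control. Enzyme-fragment complementation detection developed 90 min at room temperature, read by chemiluminescence.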

| Structure (SMILES) | EC50 |
| --- | --- |
| N=C(N)NCCC[C@@H]1NC(=O)[C@H](Cc2c[nH]c3ccccc23)NC(=O)[C@@H](Cc2ccccc2)NC(=O)[C@H](Cc2c[nH]c3ccccc23)NC(=O)[C@@H]2C[C@H](F)CN2C(=O)[C@H]2CCCN2C1=O [Ex. 43, cyclo(-Trp-^DPhe-Trp-Arg-^DPro-Pro((4S)F)—)] (cyclo([Pro(cis-4-F)]W[dF]WR[dP])) | 119 ± 42.3 nM |
| CC[C@@H]1NC(=O)[C@H]([C@@H](C)O)NC(=O)[C@H]2CCCN2C(=O)[C@H](Cc2c[nH]c3ccccc23)NC(=O)[C@H](CCCNC(=N)N)NC(=O)[C@@H](CCCNC(=N)N)NC1=O [compound 58, cyclo(-Abu-^DArg-Arg-Trp-^DPro-Thr-)] (cyclo([Abu][dR]RW[dP]T)) | 330 ± 93.2 nM |
| CC[C@H](C)[C@@H]1NC(=O)[C@H]([C@@H](C)O)NC(=O)[C@H]2CCCN2C(=O)[C@H](Cc2c[nH]c3ccccc23)NC(=O)[C@H](CCCNC(=N)N)NC(=O)[C@@H](CCCNC(=N)N)NC1=O [compound 18, cyclo(-Ile-^DArg-Arg-Trp-^DPro-Thr-)] (cyclo(I[dR]RW[dP]T)) | 6.7 ± 5.1 nM |
| CC[C@H](C)[C@@H]1NC(=O)[C@H](CO)NC(=O)[C@H]2CCCN2C(=O)[C@H](Cc2c[nH]c3ccccc23)NC(=O)[C@H](CCCNC(=N)N)NC(=O)[C@@H](CCCNC(=N)N)NC1=O [Ex. 22, cyclo(-Ile-^DArg-Arg-Trp-^DPro-Ser-)] (cyclo(I[dR]RW[dP]S)) | 12.8 ± 3.5 nM |
| N=C(N)NCCC[C@@H]1NC(=O)[C@H](Cc2c[nH]c3ccccc23)NC(=O)[C@@H](Cc2ccccc2)NC(=O)[C@H](Cc2ccc(O)cc2)NC(=O)[C@@H]2Cc3ccccc3CN2C(=O)[C@H]2C[C@@H](N)CN2C1=O [compound 28, cyclo(-Tyr-^DPhe-Trp-Arg-^DPro((4R)NH2)-Tic-)] (cyclo(R[dPro(cis-4-NH2)][Tic]Y[dF]W)) | 20.9 ± 27.3 nM |
| N=C(N)NCCC[C@@H]1NC(=O)[C@H](Cc2c[nH]c3ccccc23)NC(=O)[C@@H](Cc2ccccc2)NC(=O)[C@H](Cc2c[nH]c3ccccc23)NC(=O)[C@@H]2Cc3ccccc3CN2C(=O)[C@H]2C[C@H](N)CN2C1=O [Ex. 25, cyclo(-Trp-^DPhe-Trp-Arg-^DPro((4S)NH2)-Tic-)] (cyclo(R[dPro(4S-NH2)][Tic]W[dF]W)) | 17.5 ± 12.2 nM |
| Cn1ccnc1CNCCC[C@@H]1NC(=O)[C@H](Cc2c[nH]c3ccccc23)NC(=O)[C@@H](Cc2ccccc2)NC(=O)[C@H](Cc2c[nH]c3ccccc23)NC(=O)[C@@H]2Cc3ccccc3CN2C(=O)[C@H]2C[C@@H](N)CN2C1=O [compound 78, cyclo(-Trp-^DPhe-Trp-Orn(Ar7)-^DPro((4R)NH2)-Tic-)] (cyclo([Tic]W[dF]W[X4][dPro(cis-4-NH2)])) | 145 ± 10.9 nM |
| CC[C@H](C)[C@@H]1NC(=O)[C@H]([C@@H](C)O)NC(=O)[C@H]2CCCN2C(=O)[C@H](Cc2c[nH]c3ccccc23)NC(=O)[C@H](CCCNC(=N)N)NC(=O)[C@@H](CCCN)NC1=O [compound 63, cyclo(-Ile-^DOrn-Arg-Trp-^DPro-Thr-)] (cyclo(I[dOrn]RW[dP]T)) | 23.3 ± 7.3 nM |
| CC[C@H](C)[C@@H]1NC(=O)[C@H]([C@@H](C)O)NC(=O)[C@H]2CCCN2C(=O)[C@H](Cc2c[nH]c3ccccc23)NC(=O)[C@H](CCCCN)NC(=O)[C@@H](CCCNC(=N)N)NC1=O [compound 3, cyclo(-Ile-^DArg-Lys-Trp-^DPro-Thr-)] (cyclo(I[dR]KW[dP]T)) | 78.7 ± 115 nM |
| CC[C@H](C)[C@@H]1NC(=O)[C@H]([C@@H](C)O)NC(=O)[C@H]2CCCN2C(=O)[C@H](Cc2c[nH]c3ccccc23)NC(=O)[C@H](CCCN)NC(=O)[C@@H](CCCNC(=N)N)NC1=O [compound 65, cyclo(-Ile-^DArg-Orn-Trp-^DPro-Thr-)] (cyclo(I[dR][Orn]W[dP]T)) | 816 ± 58.8 nM |
| CC[C@H](C)[C@@H]1NC(=O)[C@H]([C@@H](C)O)NC(=O)[C@H]2CCCN2C(=O)[C@H](CCCNC(=N)N)NC(=O)[C@H](Cc2c[nH]c3ccccc23)NC(=O)[C@@H](CCCNC(=N)N)NC1=O [Ex. 17, cyclo(-Ile-^DArg-Trp-Arg-^DPro-Thr-)] (cyclo(I[dR]WR[dP]T)) | 62.5 ± 1.8 nM |
| O=C1N[C@H](Cc2ccccc2)C(=O)N[C@@H](Cc2c[nH]c3ccccc23)C(=O)N[C@@H](CCCNC2=NCCCN2)C(=O)N2CCCC[C@@H]2C(=O)N2CC[C@H](O)[C@H]2C(=O)N[C@H]1Cc1c[nH]c2ccccc12 [Ex. 73, cyclo(-Trp-^DPhe-Trp-Orn(A56)-^DPip-Pro((3S)OH)—)] (cyclo(W[dF]W[Arg(Nω,Nω'-propylene)][dPip][Pro(3S-OH)])) | 14 ± 0.1 nM |
| N=C(N)NCCC[C@@H]1NC(=O)[C@H](Cc2c[nH]c3ccccc23)NC(=O)[C@@H](Cc2ccccc2)NC(=O)[C@H](CCNC(=N)N)NC(=O)[C@@H]2Cc3ccccc3CN2C(=O)[C@H]2C[C@@H](N)CN2C1=O [compound 36, cyclo(-Agb-^DPhe-Trp-Arg-^DPro((4R)NH2)-Tic-)] (cyclo([Agb][dF]WR[dPro(cis-4-NH2)][Tic])) | 452 ± 15.8 nM |
| CC[C@H](C)[C@@H]1NC(=O)[C@H]([C@@H](C)O)NC(=O)[C@H]2CCCN2C(=O)[C@H](Cc2c[nH]c3ccccc23)NC(=O)[C@H](CCCNC(=N)N)NC(=O)[C@@H](Cc2c[nH]cn2)NC1=O [compound 12, cyclo(-Ile-^DHis-Arg-Trp-^DPro-Thr-)] (cyclo(I[dH]RW[dP]T)) | 546 ± 241 nM |
| CCCC[C@@H]1NC(=O)[C@H]([C@@H](C)O)NC(=O)[C@H]2CCCN2C(=O)[C@H](Cc2c[nH]c3ccccc23)NC(=O)[C@H](CCCNC(=N)N)NC(=O)[C@@H](CCCNC(=N)N)NC1=O [compound 61, cyclo(-Nle-^DArg-Arg-Trp-^DPro-Thr-)] (cyclo([Nle][dR]RW[dP]T)) | 2.8 ± 1 nM |
| N=C(N)NCCC[C@@H]1NC(=O)[C@H](Cc2c[nH]c3ccccc23)NC(=O)[C@@H](Cc2ccccc2)NC(=O)[C@H](Cc2c[nH]c3ccccc23)NC(=O)[C@@H]2COCCN2C(=O)[C@H]2CCCN2C1=O [compound 46, cyclo(-Trp-^DPhe-Trp-Arg-^DPro-Mor-)] (cyclo(R[dP][Morpholine(3S-CO)]W[dF]W)) | 132 ± 53.1 nM |
| CC[C@H](C)[C@@H]1NC(=O)[C@H]([C@@H](C)O)NC(=O)[C@H]2CCCN2C(=O)[C@H](Cc2ccc(C(F)(F)F)cc2)NC(=O)[C@H](CCCNC(=N)N)NC(=O)[C@@H](CCCNC(=N)N)NC1=O [Ex. 72, cyclo(-Ile-^DArg-Arg-Phe(4CF3)-^DPro-Thr-)] (cyclo(I[dR]R[Phe(4-CF3)][dP]T)) | 4.5 ± 1.1 nM |
| CC[C@H](C)[C@@H]1NC(=O)[C@@H]2[C@@H](O)CCN2C(=O)[C@H]2CCCCN2C(=O)[C@H](Cc2c[nH]c3ccccc23)NC(=O)[C@H](CCCNC(=N)N)NC(=O)[C@@H](CCCNC(=N)N)NC1=O [Ex. 54, cyclo(-Ile-^DArg-Arg-Trp-^DPip-Pro((3S)OH)—)] (cyclo(I[dR]RW[dPip][Pro(3S-OH)])) | 8.2 ± 3.4 nM |
| CC[C@H](C)[C@@H]1NC(=O)[C@H]([C@@H](C)O)NC(=O)[C@H]2CCCN2C(=O)[C@H](Cc2c[nH]c3ccccc23)NC(=O)[C@H](CNC(=N)N)NC(=O)[C@@H](CCCNC(=N)N)NC1=O [Ex. 23, cyclo(-Ile-^DArg-Agp-Trp-^DPro-Thr-)] (cyclo([Agp]W[dP]TI[dR])) | 90.5 ± 60.7 nM |
